# Measurements reported in publication PMC8746695, “Zinc-Chelating Compounds as Inhibitors of Human and Bacterial Zinc Metalloproteases” (Molecules, 2021).
# Key:
# aureolysin (ALN) = target: T1, aureolysin (ALN) (Staphylococcus aureus, UniProt P81177); test: Inhibition of aureolysin (ALN), substrate McaRPPGFSAFK(Dnp)-OH; type: biochemical
# T1 construct: purchased BioCentrum Ltd. (Kraków, Poland)
# Protocol: (§1) McaPLGL(Dpa)AR-NH2 was used as a substrate for MMP-9 and MMP-14, while McaRPPGFSAFK(Dnp)-OH was used as substrate for ALN, PLN and TLN. The reaction velocities/initial rates (v) were determined at 37 °C, at an excitation wavelength of 320 nm and an emission wavelength of 405 nm with a slit width of 10 nm using either a Perkin Elmer LS 50 Luminescence spectrometer and the FL WinLab Software Package (Perkin Elmer) or a Clario Star microplate reader (CLARIOstar® BMG LABTECH).
# (§2) The test compounds were dissolved in 100% DMSO giving a concentration of 10 mM. A fixed substrate concentration of 4.0 µM in a total volume of 100 µL 0.1 M Hepes pH 7.5, 10 mM CaCl2, 0.005% Brij-35 and 1.0% DMSO, were used in all assays, except for ALN where the substrate concentration was 5.0 µM. The fixed enzyme concentrations were as follows; 0.05 nM MMP-9, 1.0 nM MMP-14, 1.4 nM ALN, 0.5 nM PLN and 0.21 nM TLN. Time-dependent inhibitory experiments without and with 100 μM of testing compounds were performed as follows. Compounds were either pre-incubated with the proteases for 15, 30 and 45 min at room temperature and the enzymatic reaction was started by adding the substrate, or not pre-incubated, i.e., the reaction was started by adding the protease to the mixture of substrate and compound. Control tests without compound present were performed in the same way. The reaction was followed for 30 min at 37 °C.
# (§3) Enzymes with and without inhibitor were pre-incubated for 30 min at room temperature, and initial rate assays were performed as described above. Assays were performed using a Clario Star microplate reader (CLARIOstar® BMG LABTECH). The IC50 values were calculated in Graph Pad Prism 5 using Equation (1):(1) vi/v0=1/(1+10^(pIC50−pI)) where vi is the enzyme activity in the presence of inhibitor, v0 the activity in the absence of inhibitor, pI = −log [Inhibitor] in M and pIC50 = −log IC50 in M. All experiments were performed in at least triplicate.
# thermolysin (TLN) = target: T2, thermolysin (TLN) (Bacillus thermoproteolyticus, UniProt P00800); test: Inhibition of thermolysin (TLN), substrate McaRPPGFSAFK(Dnp)-OH; type: biochemical; conditions: substrate McaRPPGFSAFK(Dnp)-OH 4 µM; 30 min pre-incubation at room temperature; calculated from IC50; read-out: Ki ± s.d. TLN
# T2 construct: purchased Calbiochem (San Diego, CA, USA)
# T2 sequence (P00800 233-548): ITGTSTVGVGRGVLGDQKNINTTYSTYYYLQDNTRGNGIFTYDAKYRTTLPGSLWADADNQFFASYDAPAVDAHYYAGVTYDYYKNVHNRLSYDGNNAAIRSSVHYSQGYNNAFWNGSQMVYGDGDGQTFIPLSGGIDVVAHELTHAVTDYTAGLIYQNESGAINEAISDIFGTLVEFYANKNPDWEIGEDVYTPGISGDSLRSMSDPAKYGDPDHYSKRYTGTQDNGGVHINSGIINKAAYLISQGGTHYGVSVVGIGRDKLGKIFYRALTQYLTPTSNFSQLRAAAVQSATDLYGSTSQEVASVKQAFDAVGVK
# Protocol: as §1, §2, §3
# T1 sequence (P81177 209-509): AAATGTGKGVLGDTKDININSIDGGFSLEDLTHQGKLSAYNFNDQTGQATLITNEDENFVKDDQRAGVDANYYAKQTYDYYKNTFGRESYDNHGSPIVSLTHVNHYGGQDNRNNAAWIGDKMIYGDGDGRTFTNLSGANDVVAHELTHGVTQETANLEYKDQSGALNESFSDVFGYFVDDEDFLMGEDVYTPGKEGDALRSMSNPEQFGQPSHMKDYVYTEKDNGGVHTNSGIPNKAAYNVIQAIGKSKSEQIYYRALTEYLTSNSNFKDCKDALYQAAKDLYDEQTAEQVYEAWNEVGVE
smiles,measurement,setting,value
"c1ccc(CN(Cc2ccccn2)Cc2ccccn2)nc1 [TPA, tri(2-pyridinemethyl)amine, reference compound]",Ki,aureolysin (ALN),16 ± 1 µM
same,Ki,thermolysin (TLN),5.5 ± 0.9 µM
